Measurements: ChEMBL document CHEMBL1201862, “PubChem BioAssay data set” (2004)
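48-hour exposure; five concentrations; linearly interpolated endpoints. The concentration for 50% growth inhibition is given as GI50.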 Active and inactive are the calls of the source. No stated cut-off is given here; in the data, active = GI50 up to about 1.1 µM and inactive = higher.

Experiments:
Test in all cases: inhibition of tumour cell growth, NCI panel, 48 h
[1] = system: NCI-H226
[2] = system: HL-60
[3] = system: Malme-3M
[4] = system: UACC-62
[5] = system: SNB-75
[6] = system: RPMI-8226
[7] = system: DMS-273
[8] = system: SK-MEL-2
[9] = system: CAKI-1
[10] = system: HCC 2998
[11] = system: CCRF-CEM
[12] = system: SNB-78
[13] = system: LXFL 529
[14] = system: XF498
[15] = system: SK-MEL-28
[16] = system: SF-539
[17] = system: A498
[18] = system: UO-31
[19] = system: IGROV-1
[20] = system: NCI-H522
[21] = system: M14
[22] = system: MOLT-4
[23] = system: K562
[24] = system: NCI-H460
[25] = system: COLO 205
[26] = system: SK-OV-3
[27] = system: OVCAR-4
[28] = system: HOP-92
[29] = system: M19-MEL
[30] = system: HOP-62
[31] = system: SR
[32] = system: 786-0
[33] = system: NCI-H23
[34] = system: SF-268
[35] = system: DMS-114
[36] = system: HCT-116
[37] = system: DLD-1
[38] = system: SN12C
[39] = system: EKVX
[40] = system: LOX IMVI
[41] = system: HOP-18
[42] = system: OVCAR-8
[43] = system: HT-29
[44] = system: ACHN
[45] = system: OVCAR-5
[46] = system: SNB-19
[47] = system: KM-20L2
[48] = system: A549
[49] = system: SW-620
[50] = system: RXF 393
[51] = system: U-251
[52] = system: KM12
[53] = system: SK-MEL-5
[54] = system: TK-10
[55] = system: HCT-15
[56] = system: OVCAR-3

Measured: GI50

Cc1ncc(CI)c(CI)c1O
inactive: [1] 2.39 µM | [2] 2.22 µM | [3] 17.5 µM | [4] > 100 µM | [5] 16.8 µM | [6] 6.7 µM | [7] 14.8 µM | [8] 21.3 µM | [9] 63.2 µM | [10] 18.8 µM | [11] 3.93 µM | [12] > 100 µM | [13] > 100 µM | [14] 20.1 µM | [15] 18 µM | [16] 23.4 µM | [17] > 100 µM | [18] 2.5 µM | [19] > 100 µM | [20] 3.34 µM | [21] > 100 µM | [22] 12.7 µM | [23] 5.85 µM | [24] > 100 µM | [25] > 100 µM | [26] > 100 µM | [27] > 100 µM | [28] > 100 µM | [29] > 100 µM | [30] 17.2 µM | [31] 12.6 µM | [32] 16.9 µM | [33] 19.4 µM | [34] 24.3 µM | [35] > 100 µM | [36] 15.6 µM | [37] 24.7 µM | [38] 17.2 µM

COc1ccc(C[C@H](N)C(=O)N2C[C@@H](CO)C[C@@H](n3ccc(=O)[nH]c3=O)C2)cc1
> 100 µM: [55]
inactive: [1] > 100 µM | [2] > 100 µM | [3] > 100 µM | [4] > 100 µM | [39] > 100 µM | [6] > 100 µM | [7] > 100 µM | [8] > 100 µM | [40] > 100 µM | [9] > 100 µM | [10] > 100 µM | [41] > 100 µM | [11] > 100 µM | [13] > 100 µM | [42] > 100 µM | [15] > 100 µM | [16] > 100 µM | [43] > 100 µM | [44] > 100 µM | [45] > 100 µM | [46] > 100 µM | [47] > 100 µM | [18] > 100 µM | [19] > 100 µM | [20] > 100 µM | [48] > 100 µM | [21] > 100 µM | [49] > 100 µM | [22] > 100 µM | [23] > 100 µM | [24] > 100 µM | [50] > 100 µM | [25] > 100 µM | [51] > 100 µM | [26] > 100 µM | [27] > 100 µM | [28] > 100 µM | [29] > 100 µM | [30] > 100 µM | [31] > 100 µM | [52] > 100 µM | [53] > 100 µM | [33] > 100 µM | [34] > 100 µM | [35] > 100 µM | [36] > 100 µM | [54] > 100 µM | [37] > 100 µM | [56] > 100 µM | [38] > 100 µM
